# Measured values as given in patent US11167006B2 (Shanghai Tianci Life Science Development Co., Ltd., priority 2016, dated 2021).
# Entries after “also recorded” stand apart in the source; their conditions may differ. Square brackets hold non-standard residues; d marks the D form. Peptide text beside a SMILES is read from it. NMeF = CN[C@@H](Cc1ccccc1)C(=O)O
# Assays:
# mice [1] = assay: Conditional position preference test (CPP); assay type: in vivo, mouse; conditions: subcutaneous 10 mg/kg
# Experimental: The conditional position preference experimental device is a closed device (45×20×20 cm) assembled from transparent plexiglass plates. Two 20×20×20 cm conditional preference boxes are located at both ends of the device, with a small compartment 5×20×20 cm having a passage (5×5×5 cm) connected in the middle. On the first day of the experiment, the passage was kept open, the mice was placed into the device for 15 min, and the mice that had been explored for more than 9 min in any of the preference boxes were excluded. […] On day 5, the passage was kept opened again to ensure that the mice were free to enter into the two preference boxes, and the time that the mice stayed in the drug matching preference box within 15 minutes of the total time was recorded.
# The experimental relevant data were expressed as mean±standard error (Means±S.E.M.), and the conditional position preference score represents the time spent on the drug matching preference box on day 5 of each mouse minus the time on the first day in this preference box. Differences between groups treated with different drugs in CPP trials were analyzed by one-way ANOVA (Tukey HSD test in one-way ANOVA) for data statistics and analysis.
# body temperature of mice = assay: Body temperature of mice (rectal temperature); assay type: in vivo; conditions: mouse, intrathecal; doses 100, 300, 500 pmol
# Experimental: Mice were fixed in the manner described in Rosow et al. (1980). The ambient temperature was controlled at 21±0.5° C. and the experiment was carried out between 10 am and 2 pm. A temperature sensor attached to the biofunctional test BL-420F system was inserted into the rectum of the mouse in a depth of 2.5 cm to record the rectal temperature. The body temperatures before the intrathecal administration and at 10, 20, 30, 40, 50 and 60 minutes after administration were recorded.
# The experiment results of regulation on the mouse body temperature were expressed as the difference between the basal body temperature and the body temperature after administration. The relevant data were expressed as mean+standard error (Means±S.E.M.). Differences between groups treated with different drug concentrations were analyzed by one-way ANOVA (Bonfenoni test in one-way ANOVA) for data statistics and analysis.
# [2] = system: blood pressure of Wistar male rats; assay: Blood pressure in anesthetized rats; assay type: in vivo; conditions: rat, intrathecal; doses 1, 3, 10, 30 nmol
# Description: Wistar male rats weighing 200-250 g. After urethane (1.3 g/kg) anesthesia, the trachea was cut to prevent suffocation. The femoral was isolated and a PE-10 artery cannula was inserted in an insertion depth of approximately 2 cm. The arterial cannula was connected to a pressure transducer PT-100, and the PT-100 was connected to a biofunctional experiment BL-420F system to record mean arterial pressure and pulsatile arterial pressure. An additional PE-10 was inserted from the lumbar vertebra L4-L5 and inserted 3 cm along the subarachnoid space up to the spine T12-L1 for intrathecal administration. After the surgery, the rats were allowed to stabilize for 30 min. Then, intrathecal administration of physiological saline or different doses of the drug, the dose of the drug was from small to large, and each dose interval was more than 40 min. Changes in blood pressure of the rats after administration were recorded.
# The experimental results of cardiovascular regulation in rats were expressed as changes in blood pressure, and the relevant data were expressed as mean±standard error (Means±S.E.M.), Differences between groups treated with different drug concentrations were analyzed by one-way ANOVA (Bonferroni test in one-way ANOVA) for data statistics and analysis.
# [3] = system: male mice of Kunming strain; assay: Analgesic tolerance test (photothermal tail flick); assay type: in vivo, mouse
# Experimental: The mice were injected with the drug in the lateral ventricle of the mice for six consecutive days or in the subcutaneous of the mice for eight consecutive days, and their analgesic tolerance were detected by photothermal tail flick method, and the pharmacological activity of the compounds of the present invention in analgesic tolerance was further explored.
# In male mice of Kunming strain, the drug was injected continuously in the lateral ventricle for six days, once a day, and the effect of continuous injection of drugs on the pain sensation was detected by a photothermal tail flick instrument. The ambient temperature is controlled at 22±1° C., and the experimental animals are free to eat and drink. The test drug was injected into the lateral ventricle of the mouse for 6 consecutive days, 4 μl per injection. The basic tail flick incubation period (3-5 seconds) was measured before the first day of drug injection, and those mice that were too sensitive or dull were discarded. The tail flick incubation period of 5, 10, 15, 20, 30 min after administration on the first and sixth days was recorded in the experiment. To prevent scald on the tail of the mouse, the maximum tail flick incubation period was set as 10 seconds,
# In addition, we further studied the tolerance of subcutaneous administration of compound 9 and morphine in the photothermal tail flick test. The ambient temperature is controlled at 22±1° C., and the experimental animals are free to eat and drink. First, the basic tail flick incubation period (3-5 seconds) of the mice was measured before administration, and then compound 9 or morphine was administered subcutaneously for eight consecutive days. The tail flick incubation period of 10, 15 and 20 minutes after daily administration were recorded. To prevent scald on the tail of the mouse, the maximum tail flick incubation period was set as 10 seconds.
# The experimental data is expressed by MPE (maximum possible effect), MPE (%)=100×[(pain threshold after administration−basal pain threshold)/(10 seconds−basal pain threshold)]. The analgesic tolerance of the drug was compared using the MPE value at the time of maximum analgesic effect of the drug. MPE data was expressed as mean±standard error (Means±S.E.M.). The difference in the analgesic effect of continuous administration in the lateral ventricle of the mice for six days was statistically analyzed by the paired T test, and the difference in the analgesic effect of subcutaneous continuous administration for eight days was analyzed by One-way analysis of variance (one-way ANOVA's Tukey HSD test) for statistics, and ***P<0.001 indicates a significant difference from the analgesic effect of the drug injected on the first day.
# [4] = system: movement coordination of mice; assay: Movement coordination, RotaRod; assay type: in vivo, mouse; conditions: subcutaneous 10 mg/kg
# Experimental: The movement coordination of the mice was detected by a ZB-200 RotaRod System. The mice were first trained for two days at a rotational speed of 16 r/min and continuously trained three times a day. The maximum movement time for each training was set to 300 s, and mice with movement time less than 180 s were excluded after the training. On day 3 of the experiment, mice were tested for movement coordination at 10, 20, 30 and 40 min after subcutaneous administration of compound 9.
# The experimental data were expressed as mean±standard error (Means±S.E.M.), and the differences between drug treatment groups were analyzed by one-way ANOVA (Dunnett test in one-way ANOVA) for data statistics and analysis.
# mice [5] = assay: Naloxone withdrawal test; assay type: in vivo, mouse; conditions: s.c. at 8 hours intervals 20, 40, 60, 80, 100, 100, 100 mg/kg; naloxone 1 mg/kg; 30 minutes
smiles,measurement,setting,value
"C[C@@H](NC(=O)[C@@H](N)Cc1ccc(O)cc1)C(=O)NCC(=O)N(C)[C@@H](Cc1ccccc1)C(=O)NCC(=O)N1CCC[C@H]1C(=O)N[C@@H](CCC(N)=O)C(=O)N[C@@H](CCCNC(=N)N)C(=O)N[C@@H](Cc1ccccc1)C(N)=O [Compound 9, Tyr-D-Ala-Gly-NMe-Phe-Gly-Pro-Gln-Arg-Phe-NH2] (H-Y[dA]G[NMeF]GPQRF-NH2)",conditional positional preference,mice [1],produced significant conditional positional preference; also recorded: lower degree of preference than morphine
same,dose producing a significant effect of lowering body temperature,body temperature of mice,500 pmol
same,dose producing a significant blood pressure-lowering effect,[2],more than 1 nmol
same,analgesic tolerance,"[3]; eight consecutive days subcutaneous, 10 mg/kg",not significantly different from that of the first day
same,analgesia effect compared with morphine,"[3]; tail flick, subcutaneous 10 mg/kg",equivalent to that of an equal dose of morphine
same,effect on movement coordination,[4],did not significantly affect movement coordination
same,average number of jumps after naloxone withdrawal,mice [5],11.63
